Values of other authors in patent US20260355187A1, “LURBINECTEDIN AND DOXORUBICIN COMBINATION” (PHARMA MAR, S.A., priority 2022, published 2026).
Where a name gives a salt, the structure may show the parent alone.

Assays:
cytochrome P450 CYP3A4 = conditions: role: substrate
CYP2D6 = conditions: role: substrate
P-glycoprotein (P-gp) = conditions: role: substrate
[1] = system: CYP3A4, CYP2D6, and/or P-gp; conditions: role: substrate; inhibitors e.g. verapamil
[2] = system: tumour-derived cell lines; conditions: in vitro
[3] = system: NCI panel of 36 cell lines
CYP3A4 = conditions: role: substrate; human microsomes, in vitro
CYP2E1 = conditions: role: substrate; human microsomes, in vitro; after CYP3A4
other CYP isoenzymes = conditions: role: substrate; human microsomes, in vitro
[4] = system: tumour-associates macrophages; conditions: by inhibiting active transcription

Row | Substrate of CYP3A4 (cytochrome P450 CYP3A4) | Substrate of CYP2D6 (CYP2D6) | Substrate of P-glycoprotein (P-gp) (P-glycoprotein (P-gp)) | half maximal inhibitory concentration (IC50), range in words ([2]; broad selection of tumour-derived cell lines) | IC50 ([2]; median over tumour-derived cell lines) [nM] | Contribution of CYP2E1 to metabolism (CYP2E1) | Estimated contribution of the other CYP isoenzymes to metabolism (other CYP isoenzymes) | Compound | Clinical interaction with inhibitors of CYP3A4, CYP2D6, and/or P-gp [1] | COMPARE analysis ([3]; against other 98 standard anticancer agents) | COMPARE correlation with trabectedin (S-rank) ([3]; versus trabectedin) | Contribution of CYP3A4 to metabolism (CYP3A4) | Cytokine production in tumour-associated macrophages [4]
1 | major substrate | major substrate | major substrate | – | – | – | – | COc1cccc2c1C(=O)c1c(O)c3c(c(O)c1C2=O)C[C@@](O)(C(=O)CO)C[C@@H]3O[C@H]1C[C@H](N)[C@H](O)[C@H](C)O1 [doxorubicin, 5,12-Naphthacenedione, 10-[(3-amino-2,3,6-trideoxy-α-L-lyxo-hexopyranosyl)oxy]-7,8,9,10tetrahydro-6,8,11-trihydroxy-8-(hydroxylacetyl)-1-methoxy-, hydrochloride (8S-cis)] | increased concentration and clinical effect of doxorubicin | – | – | – | –
2 | – | – | – | low to very low nanomolar range | ~0.1 | followed by CYP2E1 | negligible | COc1ccc2[nH]c3c(c2c1)CCN[C@]31CS[C@@H]2c3c(OC(C)=O)c(C)c4c(c3[C@H](COC1=O)N1[C@@H]2[C@H]2c3c(cc(C)c(OC)c3O)C[C@@H]([C@@H]1O)N2C)OCO4 [lurbinectedin] | – | negative | > 0.8 | major CYP isoform involved in the metabolism | downregulates IL-6, IL-8, CCL2, and VEGF
